Data: patent EP4768489A1, “CYCLOBUTYL-CONTAINING COMPOUNDS” (Chia Tai Tianqing Pharmaceutical Group Co., Ltd., priority 2023, dated 2025)

Assays:
[1] = molecular target: T1, AR in VCaP cells (Homo sapiens, UniProt P10275); assay: Assay on degradation activity for AR in VCaP cells (HTRF human androgen receptor detection kit); assay type: cell-based; conditions: 24 h; for DC50: AR degradation; for Dmax: maximum degradation rate
T1 construct: Assay on degradation activity for AR in VCaP cells; endogenous in cells; host or cells: VCaP cells
T1 sequence (P10275 1-920): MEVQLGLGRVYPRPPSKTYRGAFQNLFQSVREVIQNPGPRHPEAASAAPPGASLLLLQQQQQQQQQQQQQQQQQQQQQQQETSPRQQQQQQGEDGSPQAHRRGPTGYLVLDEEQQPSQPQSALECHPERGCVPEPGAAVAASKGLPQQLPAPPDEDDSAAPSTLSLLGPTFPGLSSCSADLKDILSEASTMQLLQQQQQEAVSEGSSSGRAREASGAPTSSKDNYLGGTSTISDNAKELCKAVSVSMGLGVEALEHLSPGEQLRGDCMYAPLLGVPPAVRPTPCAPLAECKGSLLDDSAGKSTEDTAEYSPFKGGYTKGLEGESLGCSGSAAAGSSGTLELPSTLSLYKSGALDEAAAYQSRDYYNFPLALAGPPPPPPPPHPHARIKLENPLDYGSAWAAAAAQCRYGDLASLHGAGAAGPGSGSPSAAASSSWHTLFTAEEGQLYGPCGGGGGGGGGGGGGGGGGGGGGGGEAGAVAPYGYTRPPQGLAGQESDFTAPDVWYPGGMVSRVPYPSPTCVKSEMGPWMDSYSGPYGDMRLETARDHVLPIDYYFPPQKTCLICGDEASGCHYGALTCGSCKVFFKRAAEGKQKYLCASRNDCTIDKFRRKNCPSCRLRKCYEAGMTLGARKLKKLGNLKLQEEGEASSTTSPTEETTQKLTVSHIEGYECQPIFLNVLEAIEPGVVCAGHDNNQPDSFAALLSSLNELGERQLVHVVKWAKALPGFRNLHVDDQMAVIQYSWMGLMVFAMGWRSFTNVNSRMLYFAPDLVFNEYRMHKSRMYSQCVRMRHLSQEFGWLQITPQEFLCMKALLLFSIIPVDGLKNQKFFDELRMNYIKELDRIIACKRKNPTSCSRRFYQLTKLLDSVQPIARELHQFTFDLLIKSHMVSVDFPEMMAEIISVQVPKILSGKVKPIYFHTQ
Procedure: The detection was carried out using the HTRF HUMAN ANDROGEN RECEPTOR DETECTION KIT (cisbio, 64ANDRPEG), 4× Supplemented Lysis buffer was prepared using the Blocking reagent stock solution (100×) and Lysis buffer stock solution (4×), and 1× Supplemented Lysis buffer was prepared using the 4× Supplemented Lysis buffer and ddH2O. Premixed antibody solutions were prepared using Detection buffer, Androgen Receptor Eu Cryptate antibody, and Androgen Receptor d2 antibody.
The cells were cultured overnight in a cell incubator. […] After the cells were oscillated for 40 min at room temperature, 16 µL of the cell lysis buffer was added to a 384-well plate, the Premixed antibody solutions were added at 4 µL/well, and the mixture was left to stand at 25 °C for 2 h. […] Table 1. Degradation activity of compounds for AR in VCaP cells

[2] = test system: VCaP cells; assay: Assay on inhibitory activity for VCaP cell proliferation (CCK-8); assay type: cell-based; conditions: Homo sapiens, 168 h
[3] = test system: 22RV1 (H875Y/ARV7) cells; assay: Assay on inhibitory activity for 22RV1 (H875Y/ARV7) cell proliferation (CellTiter-Glo); assay type: cell-based; conditions: Homo sapiens, 168 h
Procedure: After 10 min of incubation at room temperature, the mixture was transferred to a white plate at 100 µL/well. […] Table 6. Inhibitory activity of compounds for 22RV1 (H875Y/ARV7) cell proliferation

[4] = test system: MDA-PCA-2B (L702H\T878A) cells; assay: Assay on inhibitory activity for MDA-PCA-2B (L702H\T878A) cell proliferation (CCK-8); assay type: cell-based; conditions: 168 h
From the text: Table 7. Inhibitory activity of compounds for MDA-PCA-2B (L702H\T878A) cell proliferation

[5] = In vitro liver microsome stability, human; assay type: in vitro ADME; conditions: human liver microsomes 0.5 mg/mL, 37 °C, NADPH
Procedure: (§1) Liver microsome incubation samples were prepared by mixing a PBS buffer (pH 7.4), a liver microsome solution (0.5 mg/mL), a test compound, and an NADPH + MgCl2 solution, followed by incubation at 37 °C and 300 rpm for 1 h. Zero-hour samples were prepared by mixing a PBS buffer (pH 7.4), a liver microsome solution (0.5 mg/mL), and a test compound. […]

[6] = In vitro liver microsome stability, mouse; assay type: in vitro ADME; conditions: mouse liver microsomes 0.5 mg/mL, 37 °C, NADPH
Procedure: as §1

[7] = test system: LNCaP (T878A) cells; assay: cells; conditions: Homo sapiens, 168 h
Procedure: LNCaP cells in a good growth state were taken, washed with PBS, and digested with pancreatin, and a phenol red-free 1640 complete medium containing 2% CSS-FBS was added to terminate the digestion. The cells were collected into a centrifuge tube, adjusted to a cell density of 1 × 10^5 cells/mL, and seeded in a 96-well plate (100 µL/well). Meanwhile, compounds were added using a nanoliter pipettor and subjected to a 2-fold gradient dilution such that the final concentrations of the compounds were 1000 nM-0.061 nM and 5000 nM-0.305 nM. 2 duplicate wells were set, and meanwhile, a control was set. After the cells were cultured in the cell incubator for another 168 h, the detection reagent CCK-8 (manufacturer: Dojindo, 10 µL/well) was added. After 2.0 h of incubation in the cell incubator, absorbance values at 450 nm were measured using a PerkinElmer Envision microplate reader, the four-parameter analysis was performed, the dose-response curves were fit, and IC50 was calculated.

[8] = in vivo; conditions: mouse
Procedure: (§2) ICR mice weighing 18-22 g were randomized into groups of 9 after 3-5 days of acclimatization. The mice in the intragastric administration group were intragastrically given the test compound solution at a dose of 10 mg/kg (20 mg/kg or 30 mg/kg), and the mice in the intravenous injection administration group were intravenously injected with the test compound solution at a dose of 1 mg/kg.
(§3) Blood was collected from the orbit to prepare plasma samples to be tested.
(§4) 30 µL of each of the plasma samples to be tested and a standard curve sample were taken, and an acetonitrile solution containing an internal standard was added. Supernatants were obtained by protein precipitation, diluted with a 1:1 (v:v) mixed solution of acetonitrile and water, and then assayed by LC/MS/MS. Data were fitted using a non-compartmental model.

[9] = Mouse pharmacokinetics; conditions: Mouse i.g. (0-48 h), 10 mpk vs i.v. 1 mpk
Procedure: as §2, §3, §4

Row | Compound | DC50 [1] | Dmax [1] | IC50 [2] | IC50 [3] | IC50 [4] | HLM (human) Remaining amount at 60 min % [5] | MLM (mouse) Remaining amount at 60 min % [6] | IC50 [7] | AUC at 48 h ([8]; iv, 1 mg/kg) | Vd ([8]; iv, 1 mg/kg) | clearance ([8]; iv, 1 mg/kg) | half-life ([8]; iv, 1 mg/kg) | AUC at 48 h ([8]; po, 10 mg/kg) | Cmax ([8]; po, 10 mg/kg) | half-life ([8]; po, 10 mg/kg) | F [9]
1 | COc1cc(O[C@H]2C(C)(C)[C@H](NC(=O)c3ccc(N4CCC(CN5CCc6c(ccc7c(C8CCC(=O)NC8=O)noc67)C5)CC4)cc3)C2(C)C)ccc1C#N (stereo partly drawn) [Compound 1] | < 0.005 µM | > 75% | < 2 µM | < 0.5 µM | < 0.5 µM | >70% | >70% | < 0.05 µM | 8380 ng·h/mL | 2.13 L/kg | 1.78 mL/min/kg | 13.9 h | 26800 ng·h/mL | 786 ng/mL | 24.9 h | 31.99%
2 | COc1cc(O[C@H]2C(C)(C)[C@H](NC(=O)c3ccc(N4CCC(CN5CCc6c(ccc7c(C8CCC(=O)NC8=O)noc67)C5)CC4)nc3)C2(C)C)ccc1C#N (stereo partly drawn) [Compound 3] | < 0.005 µM | > 75% | < 2 µM | < 0.5 µM | < 0.5 µM | >70% | >70% | < 0.05 µM | – | – | – | – | – | – | – | –
3 | COc1cc(O[C@H]2C(C)(C)[C@H](NC(=O)c3cnc(N4CCC(CN5CCc6c(ccc7c(C8CCC(=O)NC8=O)noc67)C5)CC4)nc3)C2(C)C)ccc1C#N (stereo partly drawn) [Compound 4] | < 0.005 µM | > 75% | < 2 µM | < 0.5 µM | < 0.5 µM | >70% | >70% | < 0.05 µM | 7730 ng·h/mL | 2.14 L/kg | 1.97 mL/min/kg | 10.5 h | 39000 ng·h/mL | 1360 ng/mL | 11.7 h | 55.36%
4 | COc1cc(O[C@H]2C(C)(C)[C@H](NC(=O)c3cnc(N4CCC(CN5CCc6c(ccc7c(C8CCC(=O)NC8=O)noc67)C5)CC4)cn3)C2(C)C)ccc1C#N (stereo partly drawn) [Compound 5] | < 0.005 µM | > 75% | < 2 µM | < 0.5 µM | < 0.5 µM | >70% | >70% | < 0.05 µM | 4340 ng·h/mL | 3.79 L/kg | 3.5 mL/min/kg | 9.91 h | 22100 ng·h/mL | 1010 ng/mL | 9.72 h | 50.78%
5 | COc1cc(O[C@H]2C(C)(C)[C@H](NC(=O)c3ccc(N4CCC(CN5CCc6c(ccc7c(C8CCC(=O)NC8=O)noc67)C5)CC4)nn3)C2(C)C)ccc1C#N (stereo partly drawn) [Compound 6] | < 0.005 µM | > 75% | – | – | – | – | >70% | < 0.05 µM | – | – | – | – | – | – | – | –
